According to patent publication US4048007A, “Method of removing solvent residues from aqueous paper pulps” (The Dow Chemical Company, priority 1976, dated 1977):
Read-outs that look alike come from different tables or passages of the source.

Experiments:
[1] = Henry's Law constant H of solvent in water; assay type: physicochemical; settings: for Value of H: Table II; for Henry's Law constant, H: Table I
Description: In a first or single stage, the incoming gas contains no solvent, yo is 0 and Em = y/y*. y is determined by analyzing a sample of the off-gas and y* can be calculated from the total vapor pressure P, the mole fraction (x) of the solvent in the liquid leaving the stage and H, the Henry's Law constant. That is, y*P (the partial pressure of the solvent) is equal to Hx, or y* = Hx/P.
For an aqueous solution of a sparingly soluble chlorinated hydrocarbon (for which Henry's law holds reasonably well over the full range of solubility up to saturation), H can be determined from the solvent solubility (c) in water and the vapor pressure (po) of the pure solvent, at a particular temperature; i.e., H = po /C. solubilities, vapor pressures and H values, at 20° C., are given below for three chlorinated hydrocarbon solvents.
The effect on H of operating at temperatures somewhat above or below […] is indicated in the following tabulation: […]

[2] = Air stripping of solvent from water (no fibers), time to strip 90% (Example 4); assay type: physicochemical; settings: 200 ml water, 5 g solvent, air stripped as in Example 2 (20° C., 2 cubic feet per minute)
Description: In a single tray apparatus similar to that in Example 1, air at 20° C. was passed at a rate of 2 cubic feet per minute through 200 ml. batches of various consistency aqueous Kraft pulps containing initially 1% by volume (2.0 ml, or […]) of dispersed perchloroethylene, C2 Cl4, which is very sparingly soluble in water (150 ppm). After 3 minutes, the residual weight of C2 Cl4 found was:
200 ml. batches of water (no fibers) containing 5 g. of solvent were stripped with air as in Example 2. The time required to strip 90% of the solvent was measured: […]

[3] = cited from earlier work; for Vapor Pressure at 20° C.: Example 4; for Vapor Pressure of pure solvent: 20° C., Table I
[4] = cited from earlier work
[5] = Dissolved solvent found in 0.5% Kraft pulp prepared with solvent-saturated water (Example 5); assay type: physicochemical; settings: 0.5% consistency Kraft pulp, water previously saturated with perchloroethylene
Description: A 0.5% consistency Kraft pulp suspension was prepared with water previously saturated with perchloroethylene.

Row | SMILES | Value of H ([1]; 15° C.) [mm Hg/ppm] | Henry's Law constant, H ([1]; 20° C.) [mm Hg/ppm] | Value of H ([1]; 20° C.) [mm Hg/ppm] | Value of H ([1]; 25° C.) [mm Hg/ppm] | Time Required to strip out 90% [2] [s] | Vapor Pressure at 20° C. [3] [mm Hg] | Solubility in water ([4]; 20° C., Table I) | dissolved C2 Cl4 content of suspension [5] [ppm] | Vapor Pressure of pure solvent [3] [mm Hg] | Solubility in water ([4]; Example 2, very sparingly soluble in water) [ppm]
1 | ClCCl [Methylene Chlorine] | 0.0183 | 0.0241 | 0.0241 | 0.0321 | 9 | 340 | 13,900 ppm |  |  | 
2 | ClC(Cl)=C(Cl)Cl [Perchloroethylene, perchloroethylene] | 0.0760 | 0.1000 | 0.1000 | 0.1267 | 125 | 15 | 147 ppm | 176 | 14.7 | 150
3 | CC(Cl)(Cl)Cl [1,1,1-Trichloroethane] |  | 0.1429 |  |  | 32 | 100 | 700 ppm |  | 100 | 
